The text below walks through data of patent US11613542B2, “Sulfonylureas and sulfonylthioureas as NLRP3 inhibitors” (Inflazome Limited, priority 2017, dated 2023).

Structures are written as SMILES. pIC50: −log10 of the molar value. Counter-ions that a name gives are not always drawn.

Tested on in the first data set: not listed separately
As to the kind of experiment: Pharmacokinetic parameters in male Sprague Dawley rats (intravenous and oral administration). As to conditions: intravenous administration, rat plasma; dose per compound (mg/kg). It counts as in vivo. As to the method: Pharmacokinetic parameters were determined in male Sprague Dawley rats (Charles River, UK, 250-350 g; or Vital River Laboratory Animal Technology Co Ltd, Beijing, China, 7-9 weeks old). Animals were individually housed during the study and maintained under a 12 h light/dark cycle. Animals had free access to food and water except that some orally dosed animals were food deprived overnight prior to the study.
For intravenous administration, compounds were formulated as a solution in water or DMSO:PBS [10:90] in 2 mL/kg dosing volume and administered via tail vein. For oral administration, compounds were formulated as a solution in water or DMSO:water [10:90] in 5 mL/kg dosing volume and administered orally.
Serial blood samples (about 120-300 μL) were taken from each animal at each of 8 time-points post dose (0.083, 0.25, 0.5, 1, 2, 4, 8 and 24 h) or at each of 12 time-points post dose (0.03, 0.1, 0.17, 0.25, 0.5, 1, 2, 4, 6, 8,12 and 24 h) or pre-dose and at each of 9 time-points post dose (0.25, 0.5, 1, 2, 4, 6, 8, 12 and 24 h). Samples were held on ice for no longer than 30 minutes before centrifugation (10,000 rpm (8,385 g) for 3 minutes; or 5,696 rpm (3,000 g) for 15 minutes) for plasma generation. Plasma was frozen on dry ice prior to bioanalysis. PK parameters were generated from LC-MS/MS data using Dotmatics or Phoenix WinNonlin 6.3 software.
With `CCn1nc(S(=O)(=O)NC(=O)Nc2c(-c3ccnc(OC)c3)ccc3c2CCC3)cc1CN(C)C` [Example 37, 5-((Dimethylamino)methyl)-1-ethyl-N-((5-(2-methoxypyridin-4-yl)-2,3-dihydro-1H-inden-4-yl)carbamoyl)-1H-pyrazole-3-sulfonamide], the AUC (in general, the area under the concentration-time curve, a measure of exposure) is 2710.4 ng·h/mL; the Cl is 10.5 mL/min/kg; the T1/2 came out at 3.8 h; the Vdss is listed as 1.23 L/kg.

In turn, `Cc1cc(-c2cc(F)cc(C(C)C)c2NC(=O)NS(=O)(=O)c2cc(CN(C)C)n(C)n2)n(C)n1` [Example 60, N-((2-(1,3-Dimethyl-1H-pyrazol-5-yl)-4-fluoro-6-isopropylphenyl)carbamoyl)-5-((dimethylamino)methyl)-1-methyl-1H-pyrazole-3-sulfonamide] displayed an AUC of 259.1 ng·h/mL, a Cl of 65.6 mL/min/kg, a T1/2 of 0.5 h and a Vdss of 0.98 L/kg.

Regarding `CC(C)c1cc(F)cc(-c2cccnc2)c1NC(=O)NS(=O)(=O)c1cc(CN(C)C)n(C)n1` [Example 61, 5-((Dimethylamino)methyl)-N-((4-fluoro-2-isopropyl-6-(pyridin-3-yl)phenyl)carbamoyl)-1-methyl-1H-pyrazole-3-sulfonamide], the AUC amounted to 259.0 ng·h/mL, the Cl is reported as 64.9 mL/min/kg, the T1/2 came to 0.5 h and the Vdss was found to be 0.75 L/kg.

`CC(C)c1cc(F)cc(-c2cccc(C#N)c2)c1NC(=O)NS(=O)(=O)c1cc(CN(C)C)n(C)n1` [Example 66, N-((3′-Cyano-5-fluoro-3-isopropyl-[1,1′-biphenyl]-2-yl)carbamoyl)-5-((dimethylamino)methyl)-1-methyl-1H-pyrazole-3-sulfonamide]: the exposure (AUC) turned out to be 375.4 ng·h/mL, the Cl is 51.5 mL/min/kg, the T1/2 turned out to be 1.2 h and the Vdss came out at 1.14 L/kg.

With `COc1cc(-c2cc(F)cc(C(C)C)c2NC(=O)NS(=O)(=O)c2cc(CN(C)C)n(C(C)C)n2)ccn1` [Example 67, 5-((Dimethylamino)methyl)-N-((4-fluoro-2-isopropyl-6-(2-methoxypyridin-4-yl)phenyl)carbamoyl)-1-isopropyl-1H-pyrazole-3-sulfonamide], the AUC stood at 247.8 ng·h/mL, the Cl stood at 67.2 mL/min/kg, the T1/2 is 0.3 h and the Vdss is 1.32 L/kg.

For `COc1cc(-c2cc(F)cc(C(C)C)c2NC(=O)NS(=O)(=O)c2cc(CN(C)C)n(C)n2)ccn1` [Example 68, 5-((Dimethylamino)methyl)-N-((4-fluoro-2-isopropyl-6-(2-methoxypyridin-4-yl)phenyl)carbamoyl)-1-methyl-1H-pyrazole-3-sulfonamide], the AUC was found to be 356.0 ng·h/mL, the Cl turned out to be 47.6 mL/min/kg, the T1/2 stood at 0.5 h and the Vdss was 0.8 L/kg.

The molecule `CC(C)c1cc(F)cc(C2CCOCC2)c1NC(=O)NS(=O)(=O)c1cc(C(=O)N(C)C)n(C)n1` [Example 133, 3-(N-((4-Fluoro-2-isopropyl-6-(tetrahydro-2H-pyran-4-yl)phenyl)carbamoyl)sulfamoyl)-N,N,1-trimethyl-1H-pyrazole-5-carboxamide, sodium salt] came in with an AUC of 182.5 ng·h/mL, a Cl of 91.3 mL/min/kg, a T1/2 of 2.3 h and a Vdss of 2.72 L/kg.

`CC(C)c1cc(F)cc(-c2cnn(C)c2)c1NC(=O)NS(=O)(=O)c1cc(C(=O)N(C)C)n(C)n1` [Example 135, 3-(N-((4-Fluoro-2-isopropyl-6-(1-methyl-1H-pyrazol-4-yl)phenyl)carbamoyl)sulfamoyl)-N,N,1-trimethyl-1H-pyrazole-5-carboxamide, sodium salt] showed an AUC of 661.2 ng·h/mL, a Cl of 25.2 mL/min/kg, a T1/2 of 12.1 h and a Vdss of 3.03 L/kg.

Consider `CC(C)c1cc(F)cc(-c2cccnc2)c1NC(=O)NS(=O)(=O)c1cc(C(=O)N(C)C)n(C)n1` [Example 141, 3-(N-((4-Fluoro-2-isopropyl-6-(pyridin-3-yl)phenyl)carbamoyl)sulfamoyl)-N,N,1-trimethyl-1H-pyrazole-5-carboxamide, sodium salt], for which the AUC stood at 274.4 ng·h/mL, the Cl was 60.7 mL/min/kg, the T1/2 is 6.3 h and the Vdss worked out at 3.95 L/kg.

Molecule `CC(C)c1cc(Cl)cc(C(C)C)c1NC(=O)NS(=O)(=O)c1cc(C(=O)N(C)C)n(C)n1` [Example 168, 3-(N-((4-Chloro-2,6-diisopropylphenyl)carbamoyl)sulfamoyl)-N,N,1-trimethyl-1H-pyrazole-5-carboxamide] gave an AUC of 353.3 ng·h/mL, a Cl of 160.9 mL/min/kg, a T1/2 of 1.3 h and a Vdss of 10.55 L/kg.

Still in this data set, the particulars now being: male, Sprague Dawley; oral administration, rat plasma; dose per compound (mg/kg).
Regarding `CC(c1cc(S(=O)(=O)NC(=O)Nc2c3c(cc4c2CCC4)CCC3)nn1C)N(C)C` (single isomer, unassigned; enantiomer 2) [Example 90, 5-(1-(Dimethylamino)ethyl)-N-((1,2,3,5,6,7-hexahydro-s-indacen-4-yl)carbamoyl)-1-methyl-1H-pyrazole-3-sulfonamide, Enantiomer 2], the apparent clearance CL/F – broadly, clearance divided by bioavailability, as obtained after extravascular dosing – was determined as 6 mL/min/kg.

Still in this data set, the particulars now being: male, Sprague Dawley; oral administration, rat plasma; dose per compound (mg/kg); read-out: Tmax.
In the case of `CC(c1cc(S(=O)(=O)NC(=O)Nc2c3c(cc4c2CCC4)CCC3)nn1C)N(C)C` (single isomer, unassigned; enantiomer 2) [Example 90, 5-(1-(Dimethylamino)ethyl)-N-((1,2,3,5,6,7-hexahydro-s-indacen-4-yl)carbamoyl)-1-methyl-1H-pyrazole-3-sulfonamide, Enantiomer 2], the Tmax – broadly, the time from dosing to the highest level – amounted to 0.5 h.

Staying with this data set, now noted: oral administration, rat plasma; dose per compound (mg/kg).
In the case of `CC(c1cc(S(=O)(=O)NC(=O)Nc2c3c(cc4c2CCC4)CCC3)nn1C)N(C)C` (single isomer, unassigned; enantiomer 2) [Example 90, 5-(1-(Dimethylamino)ethyl)-N-((1,2,3,5,6,7-hexahydro-s-indacen-4-yl)carbamoyl)-1-methyl-1H-pyrazole-3-sulfonamide, Enantiomer 2], the AUC was 11115.9 ng·h/mL; the Cmax – broadly, the peak of the concentration-time curve – is 5665.0 ng/mL; the T1/2 was 1.1 h.

For another data set, the target named is NLRP3 (Homo sapiens, UniProt Q96P20). In words: THP-1 cells pyroptosis assay. It counts as cell-based. Further details: Seed THP-1 cells (25,000 cells/well) containing 1.0 μg/ml LPS; host or cells: THP-1 cells, LPS-primed, nigericin-stimulated. The note with it: THP-1 cells, 1.0 μg/ml LPS, compound 3 hrs, nigericin 5 μM 1 hr, resazurin readout; read-out: THP IC50. The text has this: NLRP and Pyroptosis It is well established that the activation of NLRP3 leads to cell pyroptosis and this feature plays an important part in the manifestation of clinical disease (Yan-gang Liu et al., Cell Death &Disease, 2017, 8(2), e2579; Alexander Wree et al., Hepatology, 2014, 59(3), 898-910; Alex Baldwin et al., Journal of Medicinal Chemistry, 2016, 59(5), 1691-171; Ema Ozaki et al., Journal of Inflammation Research, 2015, 8, 15-27; Zhen Xie & Gang Zhao, Neuroimmunology Neuroinflammation, 2014, 1(2), 60-65; Mattia Cocco et al., Journal of Medicinal Chemistry, 2014, 57(24), 10366-10382; T. Satoh et al., Cell Death &Disease, 2013, 4, e644). Therefore, it is anticipated that inhibitors of NLRP3 will block pyroptosis, as well as the release of pro-inflammatory cytokines (e.g. […]) from the cell. THP-1 Cells: Culture and Preparation THP-1 cells (ATCC #TIB-202) were grown in RPMI containing L-glutamine (Gibco #11835) supplemented with imM sodium pyruvate (Sigma #S8636) and penicillin (100 units/ml)/streptomycin (0.1 mg/ml) (Sigma #P4333) in 10% Fetal Bovine Serum (FBS) (Sigma #Fo804). The cells were routinely passaged and grown to confluency (˜10^6 cells/ml). On the day of the experiment, THP-1 cells were harvested and resuspended into RPMI medium (without FBS). The cells were then counted and viability (>90%) checked by Trypan blue (Sigma #T8154). Appropriate dilutions were made to give a concentration of 625,000 cells/ml. To this diluted cell solution was added LPS (Sigma #L4524) to give a […] Final Assay Concentration (FAC). 40 μl of the final preparation was aliquoted into each well of a 96-well plate. The plate thus prepared was used for compound screening. THP-1 Cells Pyroptosis Assay The following method step-by-step assay was followed for compound screening. • 1. Seed THP-1 cells (25,000 cells/well) containing 1.0 μg/ml LPS in 40 μl of RPMI medium (without FBS) in 96-well, black walled, clear bottom cell culture plates coated with poly-D-lysine (VWR #734-0317) • 2. Add […] compound (8 points half-log dilution, with 10 μM top dose) or vehicle (DMSO 0.1% FAC) to the appropriate wells • 3. […] Add 5 μl nigericin (Sigma #N7143) (FAC 5 μM) to all wells • 5. […] At the end of the incubation period, spin plates at 300 xg for 3 mins and remove supernatant • 7. Then add 50 μl of resazurin (Sigma #R7017) (FAC 100μ M resazurin in RPMI medium without FBS) and incubate plates for a further 1-2 hrs at 37° C. and 5% CO2 • 8. Plates were read in an Envision reader at Ex 560 nm and Em 590 nm • 9. IC50 data is fitted to a non-linear regression equation (log inhibitor vs response-variable slope 4-parameters) [table]
NLRP3, sequence (Q96P20 whole entry): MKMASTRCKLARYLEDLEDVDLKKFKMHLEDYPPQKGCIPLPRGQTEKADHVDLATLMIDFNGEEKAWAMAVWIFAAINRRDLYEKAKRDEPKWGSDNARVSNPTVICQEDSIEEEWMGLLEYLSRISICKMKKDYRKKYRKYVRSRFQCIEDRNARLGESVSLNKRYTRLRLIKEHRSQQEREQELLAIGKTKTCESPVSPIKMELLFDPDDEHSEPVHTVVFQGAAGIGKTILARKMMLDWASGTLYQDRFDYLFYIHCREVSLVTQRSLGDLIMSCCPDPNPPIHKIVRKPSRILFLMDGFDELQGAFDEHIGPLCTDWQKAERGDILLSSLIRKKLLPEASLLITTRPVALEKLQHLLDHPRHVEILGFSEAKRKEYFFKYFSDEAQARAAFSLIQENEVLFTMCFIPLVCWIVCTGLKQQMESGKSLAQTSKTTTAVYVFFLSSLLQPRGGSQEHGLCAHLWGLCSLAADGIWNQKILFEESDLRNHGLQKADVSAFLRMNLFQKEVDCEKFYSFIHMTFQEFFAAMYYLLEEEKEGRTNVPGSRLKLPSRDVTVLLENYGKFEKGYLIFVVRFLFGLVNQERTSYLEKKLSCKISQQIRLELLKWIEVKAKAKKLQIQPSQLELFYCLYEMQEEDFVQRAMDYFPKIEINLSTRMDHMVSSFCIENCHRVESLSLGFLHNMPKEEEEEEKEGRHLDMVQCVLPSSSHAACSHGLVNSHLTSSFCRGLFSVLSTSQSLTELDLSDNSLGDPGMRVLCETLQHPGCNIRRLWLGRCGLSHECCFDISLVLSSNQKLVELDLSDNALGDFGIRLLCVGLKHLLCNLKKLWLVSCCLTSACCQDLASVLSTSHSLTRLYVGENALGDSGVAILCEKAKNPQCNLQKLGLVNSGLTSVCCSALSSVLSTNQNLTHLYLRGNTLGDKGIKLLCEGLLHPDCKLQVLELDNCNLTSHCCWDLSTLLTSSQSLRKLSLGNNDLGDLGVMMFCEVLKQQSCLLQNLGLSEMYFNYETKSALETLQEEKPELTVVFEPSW
On the technique in general: Alamar Blue is a resazurin reagent that responds to reducing activity.
`CC(c1cc(S(=O)(=O)NC(=O)Nc2c3c(cc4c2CCC4)CCC3)nn1C)N1CCC1` (single isomer, unassigned) [Example 46, 5-(1-(Azetidin-1-yl)ethyl)-N-((1,2,3,5,6,7-hexahydro-s-indacen-4-yl)carbamoyl)-1-methyl-1H-pyrazole-3-sulfonamide, sodium salt]: the pIC50 (as a rule, the negative decadic logarithm of the IC50, by convention in mol/L) is greater than 6.80.

Take `CC(c1cc(S(=O)(=O)NC(=O)Nc2c3c(cc4c2CCC4)CCC3)nn1C)N1CCC1` (single isomer, unassigned) [Example 47, 5-(1-(Azetidin-1-yl)ethyl)-N-((1,2,3,5,6,7-hexahydro-s-indacen-4-yl)carbamoyl)-1-methyl-1H-pyrazole-3-sulfonamide, sodium salt]: the pIC50 is greater than 6.80.

`CC(=O)N1CC(n2ccc(S(=O)(=O)NC(=O)Nc3c4c(cc5c3CCC5)CCC4)n2)C1` [Example 4, 1-(1-Acetylazetidin-3-yl)-N-((1,2,3,5,6,7-hexahydro-s-indacen-4-yl)carbamoyl)-1H-pyrazole-3-sulfonamide]: the pIC50 was greater than 5.59.
